Key:
[1] = system: primary human monocytes on TNF-alpha-activated HUVECs; assay: Shear flow assay: monocyte adhesion and transmigration on TNFα-activated HUVECs; assay type: cell-based; details: for Level of Transmigration Blockage (%) / Monocyte adhesion / inhibition at 30 µM: 30 μM; for Level of Transmigration Blockage (%): monocytes on TNF-activated HUVECs under flow 0.05 Pa; for Monocyte adhesion: flow 0.05 Pa for 30 minutes; for inhibition at 30 µM: Table 2, read-out: monocyte-rolling inhibition
Description: A flow assay that allows detailed analysis of individual leukocyte interactions with endothelial cells (ECs), described in Bradfield et al. (Bradfield et al., 2016, PloS One, July 21; 11(7); Bradfield et al., 2007, Blood. October 1; 110(7):2545-55) was used for evaluation of the biological effects of the compounds according to the invention. This method allows the determination of the possible effects of the compounds on three major phases in leukocyte migration: the capture of free non-bound leukocytes by endothelium, migration of leukocytes on the endothelium surface, and transendothelial migration (transmigration) of human leukocytes through the HUVECs layer. Post transmigrational events can also be monitored by tracking individual leukocytes. […] Human umbilical vein endothelial cells (HUVECs) were cultivated in the plastic channel of the flow chamber, and human leukocyte were flowed over them using a calibrated pump, allowing monocyte capture, adhesion and migration to be monitored.
Human umbilical vein endothelial cells (HUVEC) were isolated by collagenase treatment of umbilical veins as previously described (Wall, R. T., et al., Factors influencing endothelial cell proliferation in vitro. J Cell Physiol, 1978. 96(2): p. 203-13) and maintained in M199 containing 20% fetal calf serum (FCS), 15 μg/mL endothelial cell growth supplement (Upstate Biotechnology, Lake Placid, NY), 100 μg/mL heparin, 50 μM hydrocortisone, and 10 μg/mL vitamin C. Cells were cultured up to a maximum of passage 5.
Peripheral blood mononuclear cells (PBMCs) were first isolated from blood of healthy donors followed by monocyte purification using a monocyte isolation kit (Miltenyi Biotec, Bergisch Gladbach, Germany). Purity and activity of monocytes were controlled by flow cytometry by labelling with anti-CD14 and anti-CD62L. Only populations of 90% or more double positive cells were used.
(§1) Flow assays were conducted as described in a previous study (Bradfield, P. F., et al., JAM-C regulates unidirectional monocyte transendothelial migration in inflammation. Blood, 2007. 110(7): p. 2545-55). HUVECs were cultured at 1×10^5 cells/slide on Ibidi 6-chamber slides (80606; Ibidi) before treatment with TNFα (500 U/mL) for 6-10 hours. An individual chamber outlet was then attached to a calibrated pump (74 900; Cole Partner, Vernon Hills, IL) and flow was generated by perfusing wash buffer (M199 with 0.15% BSA) or a monocyte suspension (2.5×10^6 cells/mL) over the HUVEC monolayer. The flow rate was representative of shear rates in small venules (0.05 Pa). Observations made using phase-contrast microscopy (Model: Axiovert 100; Objective: 20×/0.3 NA air; Carl Zeiss) were recorded using a high-resolution camera (D70; Nikon, Zurich, Switzerland). Individual images were recorded every 30 seconds with Nikon capture software (v4.2) and compiled into movie sequences using Adobe Photoshop (CS6) and Image J (v1.5d), allowing analysis of individual monocytes over large areas. The tested compounds, e.g. compounds of the general Formula (I), were maintained at the specified concentration in all wash buffers throughout the course of the experiment. The compounds were preincubated separately on both HUVECs and monocytes 15 minutes prior to flow co-culture. HUVEC monolayers were washed for 10 minutes prior to a compound wash-in step to allow for this preincubation period. The monocyte suspension was then perfused over HUVECs for 4 minutes followed by 20 to 60 minutes with wash buffer. Time-lapse recording was started upon monocyte first-contact with the monolayer. Monocyte adhesion data are presented as the total number of monocytes per unit field. Transmigration events are presented as a percentage of total monocytes captured from flow per unit field. All experiments were carried out using quadruplicate fields and are presented as a mean value (±SEM).
A timeline is shown to represent the positioning and timing of an individual monocyte during movie analysis (marked ‘Timeline’). […]

B cells = assay: B-lymphocyte adhesion and transmigration, MesenFlow assay; assay type: cell-based; details: 30 μg/ml
Description: as §1, with “HUVEC monolayers were washed for 10 minutes prior to a compound wash-in step to allow for this preincubation period. The monocyte suspension was then perfused over HUVECs for 4 minutes followed by 20 to 60 minutes with wash buffer. Time-lapse recording was started upon monocyte first-contact with the monolayer. Monocyte adhesion data are presented as the total number of monocytes per unit field. Transmigration events are presented as a percentage of total monocytes captured from flow per unit field. All experiments were carried out using quadruplicate fields and are presented as a mean value (±SEM).” left out

Compound	Level of Transmigration Blockage (%) [1]	Monocyte adhesion [1]	inhibition at 30 µM ([1]; Homo sapiens, HUVEC)	other results
COC(=O)c1ccc(COc2cccc(C=C3C(=O)NC(=O)NC3=O)c2)cc1 [Formula 1, Methyl 4-((3-((2,4,6-trioxo-tetrahydropyrimidin-5(2H)-ylidene)methyl)phenoxy)methyl) benzoate]	81%	–	–	–
COC(=O)c1ccc(COc2c(C)cc(C=C3C(=O)NC(=O)NC3=O)cc2C)cc1 [Formula 4, Methyl 4-((2,6-dimethyl-4-((2,4,6-trioxotetrahydro-pyrimidin-5(2H)ylidene)methyl)phenoxy)methyl) benzoate]	75%	–	–	–
O=C1NC(=O)C(=Cc2ccccc2OCc2cccc(C(=O)O)c2)C(=O)N1 [Formula 6, 3-((2-((2,4,6-trioxo-tetrahydropyrimidin-5(6H)-ylidene)methyl)phenoxy)methyl)benzoic acid]	78%	–	–	–
COC(=O)c1cccc(COc2cccc(C=C3C(=O)NC(=O)NC3=O)c2)c1 [Formula 9, Methyl 3-((3-((2,4,6-trioxo-tetrahydropyrimidin-5(2H)-ylidene)methyl)phenoxy)methyl) benzoate]	98%	unaffected	> 90%	–
O=C1NC(=O)C(=Cc2c3ccccc3cc3ccccc23)C(=O)N1 [Formula 10, 5-(anthracen-9-ylmethylene)pyrimidine-2,4,6(1H,3H,5H)-trione]	92%	unaffected	> 90%	IC50 ([1]; Homo sapiens, HUVEC, flow 0.05 Pa, n=3): 300 nM; Emax ([1]; Homo sapiens, HUVEC, monocyte transmigration inhibition, read-out: maximal efficacy): 40%; concentration below which not active on monocyte transmigration ([1]; dose response, 100 μM to 3 nM): below 30 nM; monocyte transmigration ([1]; dose response, concentrations higher than 30 nM): partial effect; monocyte transmigration ([1]; dose response, high concentrations (100 μM)): Total blocking; time of the maximal effect ([1]; monocyte transmigration, read at 10, 15, 20 and 25 minutes): 25 min
Tysabri®: an antibody against alpha 4 integrin, used as a positive control [reference compound]	–	–	–	number of transmigrated B cells (B cells): no net effect
